{"source": "patent US10300067B2", "about": "“Tetrahydropyridopyrimidine compound or salt thereof” (TAIHO PHARMACEUTICAL CO., LTD., priority 2014, dated 2019)", "format_in_all_cases": "cell-based", "key": {"[1]": {"tested_on": "Human prostate cancer cells LNCaP", "assay": "Androgen-dependent inhibitory activity on proliferation of prostate cancer cells", "details": "50% proliferation inhibition concentration, DHT 10 nmol/L, 72 hours, read-out: GI50 value", "method": "Human prostate cancer cells LNCaP (Non-Patent Literature 5) having […] androgen receptor gene were seeded in a clear bottom 96 well microplate (BD) at 4.0×10^3/well with phenol red free RPMI1640 containing 5% DCC-FBS (hereinbelow, the medium is referred to as an evaluation medium), and then cultured overnight. The culture was added with the evaluation medium containing DHT (final concentration of DHT: 10 nmol/L) or the evaluation medium containing the compound of Examples or the compound of Comparative Examples (final concentration of the compound of Examples or the compound of Comparative Examples: 10, 30, 100, 300, 1000, 3000, 10000, or 30000 nmol/L), followed by culture for 72 hours. Then, the number of viable cells was counted. The number of viable cells was measured by using Cell Counting Kit-8 (DOJINDO LABORATORIES)."}, "[2]": {"tested_on": "AR positive human prostate cancer cells VCaP", "assay": "Agonist activity for AR (cell proliferation rate of VCaP cells)", "details": "72 hours, 2 to 10000 nmol/L, more than 10% at any concentration = agonist activity for AR", "method": "AR positive human prostate cancer cells VCaP (In Vivo 15:163-168, 2001) were seeded in a clear bottom 96 well microplate (BD) at 1.5×10^4/well with phenol red free RPMI1640 containing 5% DCC-FBS (hereinbelow, the medium is referred to as an evaluation medium), and then cultured overnight. The culture was added with the evaluation medium containing the compound of Examples or the compound of Comparative Examples (final concentration of the compound of Examples or the compound of Comparative Examples: 2, 5, 14, 41, 123, 370, 1111, 3333, or 10000 nmol/L), followed by culture for 72 hours. Then, the number of viable cells was counted (test group). As a control, the cells were cultured after being added with the evaluation medium only, and the number of viable cells was counted (control group). The number of viable cells was measured by using CellTiter-Glo™ Luminescent Cell Viability Assay (Promega). From the measured number of viable cells, cell proliferation rate with respect to the compound of Examples or the compound of Comparative Examples was calculated based on the number of viable cells measured in the case of using the evaluation medium only. Cell proliferation rate (%) =(Number of viable cells in test group−Number of viable cells in control group)/(Number of viable cells in control group)×100\nBy considering an error in the number of viable cells measured in the case of using the evaluation medium only, when the cell proliferation rate was more than 10% at any concentration of the 9 concentrations which had been evaluated, it was determined to have an agonist activity for AR."}, "[3]": {"molecular_target": "androgen receptor (Homo sapiens (Human), UniProt P10275, T878A)", "sequence (P10275 whole entry T878A)": "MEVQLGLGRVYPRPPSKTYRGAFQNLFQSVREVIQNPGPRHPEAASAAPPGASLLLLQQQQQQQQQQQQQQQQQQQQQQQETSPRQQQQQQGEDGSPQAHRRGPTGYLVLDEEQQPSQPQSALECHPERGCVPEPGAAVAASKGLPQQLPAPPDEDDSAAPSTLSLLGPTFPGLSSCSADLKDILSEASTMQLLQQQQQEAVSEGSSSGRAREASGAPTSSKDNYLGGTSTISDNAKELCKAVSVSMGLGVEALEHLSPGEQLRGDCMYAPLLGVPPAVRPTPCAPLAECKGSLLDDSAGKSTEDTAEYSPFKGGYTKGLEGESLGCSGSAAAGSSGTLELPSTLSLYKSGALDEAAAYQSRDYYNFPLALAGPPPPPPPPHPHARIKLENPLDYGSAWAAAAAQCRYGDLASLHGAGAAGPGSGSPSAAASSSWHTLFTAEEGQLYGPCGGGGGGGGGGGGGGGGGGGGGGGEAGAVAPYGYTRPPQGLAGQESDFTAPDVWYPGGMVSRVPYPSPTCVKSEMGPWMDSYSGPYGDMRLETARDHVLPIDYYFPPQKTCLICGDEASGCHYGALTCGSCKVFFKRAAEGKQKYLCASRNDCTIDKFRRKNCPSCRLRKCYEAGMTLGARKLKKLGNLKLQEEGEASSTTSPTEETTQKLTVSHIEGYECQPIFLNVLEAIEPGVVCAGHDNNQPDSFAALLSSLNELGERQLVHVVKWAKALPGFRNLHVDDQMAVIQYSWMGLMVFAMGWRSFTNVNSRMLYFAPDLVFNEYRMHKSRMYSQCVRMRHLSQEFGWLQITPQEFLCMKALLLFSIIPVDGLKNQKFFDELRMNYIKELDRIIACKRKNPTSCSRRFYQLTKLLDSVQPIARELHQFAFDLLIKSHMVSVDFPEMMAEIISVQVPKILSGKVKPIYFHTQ", "assay": "Activity of reducing expression level of androgen receptor (Western blotting of LNCaP cell lysate)", "details": "48 hours", "method": "AR positive human prostate cancer cells LNCaP were seeded in a clear bottom 6 well microplate (BD) at 3.5×10^5/well with phenol red free RPMI1640 containing 5% FBS (hereinbelow, the medium is referred to as an evaluation medium), and then cultured overnight. The culture was added with the evaluation medium containing the compound of Examples or the compound of Comparative Examples such that the final concentration of the compound of Examples or the compound of Comparative Examples was 10000 nmol/L, followed by culture for 48 hours. After culture for 48 hours, the medium was removed and the cells were washed with PBS and added with 0.1 mL of Lysis buffer (M-PER added with Protease Inhibitor Cocktail), followed by keeping at 4° C. for 20 minutes. After cell lysis, the cell solution was centrifuged to recover the supernatant as cell lysate. […] The antibody-reacting band (anti AR receptor) was quantified by LAS-3000 (FUJIFILM) using Super Signal West Pico Substrate (Thermo Scientific) as a detection reagent."}, "[4]": {"molecular_target": "human androgen receptor (Homo sapiens (Human), UniProt P10275)", "sequence (P10275 whole entry)": "as the sequence (P10275 whole entry T878A) above, with A878T counted along it", "assay": "Antagonist activity for AR (pMMTV-luc reporter transcription activity in transfected COS-7 cells, DHT 1 nmol/L)", "details": "50% transcription activity inhibition concentration; COS-7 cells with pMMTV-luc and pEX-hAR, DHT 1 nmol/L, 24 hours", "method": "Antagonist activity for AR was evaluated according to the following method. COS-7 cells (ATCC) were transfected with pMMTV-luc vector (reporter plasmid having, as an androgen response element, […] long terminal repeat) and pEX-hAR vector (human androgen receptor expression vector: which expresses human AR gene under control of CMV promoter) by using Nucleofector (registered trademark) Kit R (Lonza) as a transfection reagent and Amaxa (Lonza). The COS-7 cells obtained after transfection were seeded in a clear bottom 96 well microplate (BD) at 1.5×10^4/well with phenol red free RPMI1640 containing 10% charcoal-treated fetal bovine serum (hereinbelow, DCC-FBS) (hereinbelow, the medium is referred to as an evaluation medium), and then cultured overnight. […] Then, the transcription activity value was measured. The transcription activity was measured by using Bright-Glo™ Luciferase Assay System (Promega)."}}}
{"smiles": "CC(O)(CS(=O)(=O)c1ccc(F)cc1)C(=O)Nc1ccc(C#N)c(C(F)(F)F)c1", "note": "(stereo not drawn) [Comparative Example 1, N-(4-Cyano-3-(trifluoromethyl)phenyl)-3-((4-fluorophenyl)sulfonyl)-2-hydroxy-2-methylpropanamide, reference compound]", "values": [{"measurement": "GI50", "setting": "[1]", "value": 3500, "unit": "nM"}, {"measurement": "Cell proliferation rate (%)", "setting": "[2]", "value": 39.7, "unit": "%"}]}
{"smiles": "N#Cc1ccc(N2CCc3c(ncnc3Nc3ncns3)C2)cc1C(F)(F)F", "note": "[Example 1, 4-(4-((1,2,4-thiadiazol-5-yl)amino)-5,6-dihydropyrido[3,4-d]pyrimidin-7(8H)-yl)-2-(trifluoromethyl)benzonitrile]", "values": [{"measurement": "10 μM AR expression reducing activity", "setting": "[3]", "value": "reduced (When the AR expression reducing activity is 50% or more, it is described as “reduced”)"}, {"measurement": "GI50", "setting": "[1]", "value": 3000, "unit": "nM"}, {"measurement": "Cell proliferation rate (%)", "setting": "[2]", "value": 8.7, "unit": "%"}, {"measurement": "IC50", "setting": "[4]", "value": 80, "unit": "nM"}]}
{"smiles": "Cn1nccc1CCOc1ccc(Nc2ncnc3c2CCN(c2ccc(C#N)c(C(F)(F)F)c2)C3)cc1", "note": "[Example 14, 4-(4-((4-(2-(1-Methyl-1H-pyrazol-5-yl)ethoxy)phenyl)amino)-5,6-dihydropyrido[3,4-d]pyrimidin-7(8H)-yl)-2-(trifluoromethyl)benzonitrile]", "values": [{"measurement": "10 μM AR expression reducing activity", "setting": "[3]", "value": "reduced (When the AR expression reducing activity is 50% or more, it is described as “reduced”)"}, {"measurement": "GI50", "setting": "[1]", "value": 1400, "unit": "nM"}, {"measurement": "IC50", "setting": "[4]", "value": 300, "unit": "nM"}]}
{"smiles": "N#Cc1ccc(N2CCc3c(ncnc3Nc3ccc(S(=O)(=O)NC4CC4)cn3)C2)cc1C(F)(F)F", "note": "[Example 19, 6-((7-(4-Cyano-3-(trifluoromethyl)phenyl)-5,6,7,8-tetrahydropyrido[3,4-d]pyrimidin-4-yl)amino)-N-cyclopropylpyridine-3-sulfonamide]", "values": [{"measurement": "GI50", "setting": "[1]", "value": 3000, "unit": "nM"}, {"measurement": "IC50", "setting": "[4]", "value": 130, "unit": "nM"}]}
{"smiles": "N#Cc1ccc(N2CCc3c(ncnc3Nc3ccc(NC(=O)CC(F)(F)F)cn3)C2)cc1C(F)(F)F", "note": "[Example 23, N-(6-((7-(4-Cano-3-(trifluoromethyl)phenyl)-5,6,7,8-tetrahydropyrido[3,4-d]pyrimidin-4-yl)amino)pyridin-3-yl)-3,3,3-trifluoropropanamide]", "values": [{"measurement": "GI50", "setting": "[1]", "value": 1500, "unit": "nM"}, {"measurement": "Cell proliferation rate (%)", "setting": "[2]", "value": 5.1, "unit": "%"}, {"measurement": "IC50", "setting": "[4]", "value": 800, "unit": "nM"}]}
{"smiles": "N#Cc1ccc(N2CCc3c(ncnc3Nc3ccc(C(=O)NCC(F)(F)F)nn3)C2)cc1C(F)(F)F", "note": "[Example 24, 6-((7-(4-Cyano-3-(trifluoromethyl)phenyl)-5,6,7,8-tetrahydropyrido[3,4-d]pyrimidin-4-yl)amino)-N-(2,2,2-trifluoroethyl)pyridazine-3-carboxamide]", "values": [{"measurement": "10 μM AR expression reducing activity", "setting": "[3]", "value": "reduced (When the AR expression reducing activity is 50% or more, it is described as “reduced”)"}, {"measurement": "GI50", "setting": "[1]", "value": 3500, "unit": "nM"}, {"measurement": "IC50", "setting": "[4]", "value": 70, "unit": "nM"}]}
{"smiles": "N#Cc1ccc(N2CCc3c(ncnc3Nc3ccc(C(=O)NCC(F)F)cn3)C2)cc1C(F)(F)F", "note": "[Example 27, 6-((7-(4-Cyano-3-(trifluoromethyl)phenyl)-5,6,7,8-tetrahydropyrido[3,4-d]pyrimidin-4-yl)amino)-N-(2,2-difluoroethyl)nicotinamide]", "values": [{"measurement": "GI50", "setting": "[1]", "value": 2800, "unit": "nM"}, {"measurement": "Cell proliferation rate (%)", "setting": "[2]", "value": "−0.2", "unit": "%"}, {"measurement": "IC50", "setting": "[4]", "value": 90, "unit": "nM"}]}
{"smiles": "N#Cc1ccc(N2CCc3c(ncnc3Nc3ccc(C(=O)NCC(F)F)nn3)C2)cc1C(F)(F)F", "note": "[Example 28, 6-((7-(4-Cyano-3-(trifluoromethyl)phenyl)-5,6,7,8-tetrahydropyrido[3,4-d]pyrimidin-4-yl)amino)-N-(2,2-difluoroethyl)pyridazine-3-carboxamide]", "values": [{"measurement": "10 μM AR expression reducing activity", "setting": "[3]", "value": "reduced (When the AR expression reducing activity is 50% or more, it is described as “reduced”)"}, {"measurement": "GI50", "setting": "[1]", "value": 3200, "unit": "nM"}, {"measurement": "IC50", "setting": "[4]", "value": 20, "unit": "nM"}]}
{"smiles": "N#Cc1ccc(N2CCc3c(ncnc3Nc3ccc(C(=O)N[C@H]4CC[C@H](O)CC4)nn3)C2)cc1Cl", "note": "[Example 29, 6-((7-(3-Chloro-4-cyanophenyl)-5,6,7,8-tetrahydropyrido[3,4-d]pyrimidin-4-yl)amino)-N-((1r,4r)-4-hydroxycyclohexyl)pyridazine-3-carboxamide]", "values": [{"measurement": "GI50", "setting": "[1]", "value": 200, "unit": "nM"}, {"measurement": "IC50", "setting": "[4]", "value": 200, "unit": "nM"}]}
{"smiles": "N#Cc1ccc(N2CCc3c(ncnc3Nc3ccc(C(=O)NCC4(O)CC4)nn3)C2)cc1C(F)(F)F", "note": "[Example 30, 6-((7-(4-Cyano-3-(trifluoromethyl)phenyl)-5,6,7,8-tetrahydropyrido[3,4-d]pyrimidin-4-yl)amino)-N-((1-hydroxycyclopropyl)methyl)pyridazine-3-carboxamide]", "values": [{"measurement": "10 μM AR expression reducing activity", "setting": "[3]", "value": "reduced (When the AR expression reducing activity is 50% or more, it is described as “reduced”)"}, {"measurement": "GI50", "setting": "[1]", "value": 3200, "unit": "nM"}]}
{"smiles": "CC(C)(O)CNC(=O)c1cnc(Nc2ncnc3c2CCN(c2ccc(C#N)c(C(F)(F)F)c2)C3)cn1", "note": "[Example 33, 5-((7-(4-Cyano-3-(trifluoromethyl)phenyl)-5,6,7,8-tetrahydropyrido[3,4-d]pyrimidin-4-yl)amino)-N-(2-hydroxy-2-methylpropyl)pyrazine-2-carboxamide]", "values": [{"measurement": "GI50", "setting": "[1]", "value": 2100, "unit": "nM"}, {"measurement": "Cell proliferation rate (%)", "setting": "[2]", "value": 4.4, "unit": "%"}, {"measurement": "IC50", "setting": "[4]", "value": 310, "unit": "nM"}]}
{"smiles": "Cn1nccc1CCNC(=O)c1nnc(Nc2ncnc3c2CCN(c2ccc(C#N)c(C(F)(F)F)c2)C3)s1", "note": "[Example 35, 5-((7-(4-Cano-3-(trifluoromethyl)phenyl)-5,6,7,8-tetrahydropyrido[3,4-d]pyrimidin-4-yl)amino)-N-(2-(1-methyl-1H-pyrazol-5-yl)ethyl)-1,3,4-thiadiazol-2-carboxamide]", "values": [{"measurement": "GI50", "setting": "[1]", "value": 1600, "unit": "nM"}, {"measurement": "Cell proliferation rate (%)", "setting": "[2]", "value": 0.1, "unit": "%"}, {"measurement": "IC50", "setting": "[4]", "value": 190, "unit": "nM"}]}
{"smiles": "CC(C)(O)C1CCN(C(=O)c2coc(Nc3ncnc4c3CCN(c3ccc(C#N)c(C(F)(F)F)c3)C4)n2)CC1", "note": "[Example 41, 4-(4-((4-(4-(2-Hydroxypropan-2-yl)piperidin-1-carbonyl)oxazol-2-yl)amino)-5,6-dihydropyrido[3,4-d]pyrimidin-7(8H)-yl)-2-(trifluoromethyl)benzonitrile]", "values": [{"measurement": "10 μM AR expression reducing activity", "setting": "[3]", "value": "reduced (When the AR expression reducing activity is 50% or more, it is described as “reduced”)"}, {"measurement": "GI50", "setting": "[1]", "value": 2400, "unit": "nM"}, {"measurement": "IC50", "setting": "[4]", "value": 1940, "unit": "nM"}]}
{"smiles": "CC(C)(COc1ncc(Nc2ncnc3c2CCN(c2ccc(C#N)c(C(F)(F)F)c2)C3)cc1F)n1ccnn1", "note": "[Example 51, 4-(4-((5-Fluoro-6-(2-methyl-2-(1H-1,2,3-triazol-1-yl)propoxy)pyridin-3-yl)amino)-5,6-dihydropyrido[3,4-d]pyrimidin-7(8H)-yl)-2-(trifluoromethyl)benzonitrile]", "values": [{"measurement": "10 μM AR expression reducing activity", "setting": "[3]", "value": "reduced (When the AR expression reducing activity is 50% or more, it is described as “reduced”)"}, {"measurement": "Cell proliferation rate (%)", "setting": "[2]", "value": "−5.4", "unit": "%"}, {"measurement": "IC50", "setting": "[4]", "value": 1100, "unit": "nM"}]}
{"smiles": "CC(C)(COc1ncc(Nc2ncnc3c2CCN(c2ccc(C#N)c(C(F)(F)F)c2)C3)cc1Cl)n1cnnn1", "note": "[Example 52, 4-(4-((5-Chloro-6-(2-methyl-2-(1H-tetrazol-1-yl)propoxy)pyridin-3-yl)amino)-5,6-dihydropyrido[3,4-d]pyrimidin-7(8H)-yl)-2-(trifluoromethyl)benzonitrile]", "values": [{"measurement": "10 μM AR expression reducing activity", "setting": "[3]", "value": "reduced (When the AR expression reducing activity is 50% or more, it is described as “reduced”)"}, {"measurement": "Cell proliferation rate (%)", "setting": "[2]", "value": "−3.4", "unit": "%"}, {"measurement": "IC50", "setting": "[4]", "value": 150, "unit": "nM"}]}
